{"source": "patent US9745345B2", "about": "“Anti-tumor polypeptides and method for preparing anti-tumor drugs comprisng the same” (priority 2013, dated 2017)", "key": {"SGC7901 cells [1]": {"test_system": "SGC7901 cells", "assay": "Annexin V-PE/7-AAD flow cytometry of apoptosis in SGC7901 cells", "assay_type": "cell-based", "from_the_text": "Six groups with different treatment methods directed against SGC7901 cells were designed: blank control group; transfection Flag-control group; transfection Hag-JWA group; transfection Flag-JWA and ATO combined treatment group; ATO treatment group; and polypeptide CPP-1 and ATO combined treatment group. After 24 hrs of treatment for each group, Annexin V-PE/PI flow cytometry was used to examine apoptosis and Western Blot was used to detect the level of PARP-1. […]\nIn normal cells, phosphatidyl serine (PS) are distributed on the inside of cell membrane lipid bilayer, and at the early stage of apoptosis the phosphatidyl serine (PS) in cell membranes is turned over from the inside of lipid membrane to the outside thereof. […] Annexin V was labeled with fluorescein phycoerythrin (PE); fluorescence microscopy or flow cytometry could be employed to examine apoptosis with the labeled Annexin V used as a fluorescent probe. […] Cells were divided into three group by the fluorescence intensity of 7-AAD labeling DNA: strong fluorescence of 7-AAD indicates dead cells, weak fluorescence of 7-AAD indicates apoptotic cells, and undetectable fluorescence of 7-AAD indicates normal active cells. […]"}, "SGC7901 cells [2]": {"test_system": "SGC7901 cells", "assay": "Western Blot of PARP-1 in SGC7901 cells", "assay_type": "cell-based", "conditions": "CPP-1 and ATO combined action group versus other groups", "procedure": "The combined effect of ATO and polypeptide JWA-6 on the self-destruction of protein expression was also determined A375 cells in the logarithmic phase of growth were conventionally digested and 5×10^5 cells were inoculated evenly in a 60 mm cell culture dish, and different doses of ATO were used to individually treat the cells for 24 hrs, or different doses of ATO in combination with different doses of polypeptide JWA-6 were used to treat the cells for 24 hrs, after which 0.18 mL of RIPA lysis buffer containing 0.5% phenylmethanesulfonyl fluoride (PMSF) was added to extract protein. After centrifugation at 12000×g for 15 minutes, the supernatant was taken, protein concentration was examined. Based on the molecular weight measured, a polyacrylamide gel having a suitable concentration was chosen for protein electrophoresis where each well was added with […] of protein, and the conditions for electrolysis were 60 V, 30 minutes and 90 V, 1-1.5 hrs. After completion of the electrolysis, semi-dry transfer was performed to transfer the protein from the gel onto a polyvinylidene difluoride (PVDF) membrane. After completion of the transfer, the membrane was blocked with 5% skim milk at room temperature for 1-2 hrs. Then, the membrane was washed 3 times (each lasting 5 minutes) using Tris-buffered Saline with Tween (TBST) containing 0.1% Tween-20, and incubation of the corresponding antibody was performed overnight at 4° C. On the next day, membrane was washed 3 times (each lasting 5 minutes) using Tris-buffered Saline with Tween (TBST) containing 0.1% Tween-20; incubation of secondary antibody was performed at room temperature for 1-2 hrs; and again membrane was washed 8 times (each lasting 5 minutes) using Tris-buffered Saline with Tween (TBST) containing 0.1% Tween-20. The membrane was added with enhanced chemiluminescence (ECL) liquid and exposed. […]"}, "[3]": {"test_system": "SGC7901 gastric cancer cell", "assay": "Fluorescence of FITC-modified cell-penetrating peptides after entry into SGC7901 cells", "assay_type": "cell-based", "conditions": "20 μM, 3 hrs", "from_the_text": "To enable JWA functional polypeptides to effectively penetrate into tumor cells, four typical CPPs: R9, TAT, pep-1, 2K (see Table 3), and a blank control having only JWA-1 were selected, the cell-penetrating peptide (CPP) with the highest cell-penetrating effect, its optimal action concentration and optimal action time were selected from the cell model.\nTo facilitate the use of fluorescence microscopy to directly observe whether polypeptides have the ability to enter cells, the N-terminuses of the aforementioned sequences and JWA-1 were modified with fluorescein isothiocyanate (FITC) and the C-terminuses thereof were amidated."}, "[4]": {"test_system": "Mouse Melanoma B16F10 Cells", "assay": "Cell proliferation with CCK8 reagent, B16F10 cells", "assay_type": "cell-based", "conditions": "0-50 μM, 24, 48 and 72 hrs, in comparison with the control group", "procedure": "(§1) B16F10 or A375 cells in the logarithmic phase of growth were trypsinized and seeded in a 96-well plate (5×10^3 cells/well), and were treated with different doses (0 μM, 5 μM, 10 μM, 25 μM, 50 μM) of polypeptide JWA-1, JWA-5, JWA-6 or non-pep (the polypeptide sequence used was the same as Example 3) for 24 hrs, 48 hrs and 72 hrs, respectively. The original culture medium was removed from the 96 wells at the indicated time and cell proliferation was determined with CCK8 reagent according to the manufacturer's instructions. Four duplicate samples were taken from each group and the experiments were repeated for three times."}, "[5]": {"test_system": "human melanoma A375 cells", "assay": "Human melanoma A375 subcutaneous xenograft in NOD/SCID mice, intraperitoneal injection of polypeptides", "assay_type": "in vivo", "conditions": "Example 5; 50 mg/kg intraperitoneal, alternate days, 5 times", "from_the_text": "The polypeptide designed and synthesized in this example was JWA-6+RGD whose sequence was SEQ ID NO: 7, i.e. 6-aminocaproic acid-FPGSDRF-GGGG-RGD, wherein amino acid S was phosphorylated. In addition, the N-terminus of the polypeptide sequence was acetylated and the C-terminus thereof was amidated during synthesis to prevent rapid degradation of the polypeptide. In this example, non-obese diabetic/severe combined immunodeficiency (NOD/SCID) mice were chosen for tumor-bearing model and the method for dorsal subcutaneous tumor bearing by inoculation of human melanoma A375 cells is the same as Example 2. The mice were randomly divided into four treatment groups after the tumors grew to a volume of about 100 mm^3. […]\nThen, 50 mg/kg polypeptide JWA-6, 10 mg/kg polypeptide JWA-6+RGD, 50 mg/kg polypeptide JWA-6+RGD, and 50 mg/kg non-pep (the polypeptide sequence used was the same as Example 3) were injected intraperitoneally. The various groups were administered with injection on alternate days for 5 times consecutively; and the body weight of the mice and their tumor diameters were measured at each administration. After completion of the experiment the mice were sacrificed after anesthesia, tumors were separated from the bodies and the tumor weights measured.\nThereafter, the tumor bearing mice were obtained using the foregoing method of this example and divided into seven injection groups which were intraperitoneally injected with polypeptides JWA-6+RGD, JWA-6+RGD0, JWA-6+RGD1, JWA-6+RGD3, JWA-6+RGD7, JWA-6+RGD10, and non-pep (the polypeptide sequence used was the same as Example 3) at a dose of 50 mg/kg. The various groups were administered by intraperitoneal injection on alternate days for 5 times consecutively; and the body weight of the mice and their tumor diameters were measured at each administration. The day of first administration was taken as the first day, and the experiment was stopped on the twelfth day when the mice were sacrificed after anesthesia, and tumors were separated from the bodies and the tumor weights were measured."}, "[6]": {"test_system": "Human Melanoma A375 Cells", "assay": "Cell proliferation with CCK8 reagent, A375 cells", "assay_type": "cell-based", "conditions": "0-50 μM, 24, 48 and 72 hrs, in comparison with the control group", "procedure": "as §1"}, "A375 cells [7]": {"test_system": "A375 cells", "assay": "Western Blot of apoptosis-related molecules (PARP-1, caspase-3) in A375 cells", "assay_type": "cell-based, human", "conditions": "JWA-6 in combination with ATO, 24 hrs; compared to untreated group and ATO alone", "procedure": "The combined effect of ATO and polypeptide JWA-6 on the self-destruction of protein expression was also determined A375 cells in the logarithmic phase of growth were conventionally digested and 5×10^5 cells were inoculated evenly in a 60 mm cell culture dish, and different doses of ATO were used to individually treat the cells for 24 hrs, or different doses of ATO in combination with different doses of polypeptide JWA-6 were used to treat the cells for 24 hrs, after which 0.18 mL of RIPA lysis buffer containing 0.5% phenylmethanesulfonyl fluoride (PMSF) was added to extract protein. After centrifugation at 12000×g for 15 minutes, the supernatant was taken, protein concentration was examined. Based on the molecular weight measured, a polyacrylamide gel having a suitable concentration was chosen for protein electrophoresis where each well was added with […] of protein, and the conditions for electrolysis were 60 V, 30 minutes and 90 V, 1-1.5 hrs. After completion of the electrolysis, semi-dry transfer was performed to transfer the protein from the gel onto a polyvinylidene difluoride (PVDF) membrane. After completion of the transfer, the membrane was blocked with 5% skim milk at room temperature for 1-2 hrs. Then, the membrane was washed 3 times (each lasting 5 minutes) using Tris-buffered Saline with Tween (TBST) containing 0.1% Tween-20, and incubation of the corresponding antibody was performed overnight at 4° C. On the next day, membrane was washed 3 times (each lasting 5 minutes) using Tris-buffered Saline with Tween (TBST) containing 0.1% Tween-20; incubation of secondary antibody was performed at room temperature for 1-2 hrs; and again membrane was washed 8 times (each lasting 5 minutes) using Tris-buffered Saline with Tween (TBST) containing 0.1% Tween-20. The membrane was added with enhanced chemiluminescence (ECL) liquid and exposed.\nPolypeptide CPP-JWA-6 at a dose of 20 μM, 50 μM was applied individually and applied in combination with ATO (5 μM) on A375 cells (as shown in FIG. 40) and SGC7901 cells (as shown in FIG. 41) for 24 hrs before protein was extracted, and the Western Blot method of Example 7 was used to examine the changes in apoptosis-related molecules."}, "A375 cells [8]": {"test_system": "A375 cells", "assay": "Cytoactivity of A375 cells treated with ATO alone or with polypeptides in combination with ATO", "assay_type": "cell-based, human", "procedure": "Firstly, the dose and time for treatment of A375 cells with ATO were determined. A375 cells in the logarithmic phase of growth were conventionally digested and seeded in a 96-well plate (5×10^3 cells/well), and different doses (5 μM, 10 μM, 25 μM, 50 μM) of ATO were used to treat the cells for 24 hrs and 48 hrs after cell attachment. It was discovered that the activity of A375 cells was reduced by 40% after 24 hrs of treatment with 5 μM ATO (as shown in FIG. 24), and that the cell growth inhibition rate was approximately 100% after 48 hrs of treatment with different doses of ATO (as shown in FIG. 25). Therefore, ATO with a concentration smaller than or equal to 5 μM was chosen to treat the cells for 24 hrs for subsequent reference of dose and time for combined medication."}, "B16 cells": {"test_system": "B16 cells", "assay": "Western Blot of PARP-1 in B16 cells", "assay_type": "cell-based", "conditions": "JWA-6 in combination with ATO, 24 hrs"}}, "note": "Square brackets hold non-standard residues; d marks the D form. Ends that are not written are not given here. pS = N[C@@H](COP(=O)(O)O)C(=O)O; Ahx = NCCCCCC(=O)O"}
{"substance": "6-aminocaproic acid-(R)9-FFPGSDRFA ([Ahx]RRRRRRRRRFFPG[pS]DRFA) [CPP-1]", "values": [{"measurement": "apoptosis rate", "setting": "SGC7901 cells [1]; 20 μM polypeptide 3 hrs, then 5 μM ATO 24 hrs (combined action group)", "value": 55.76, "unit": "%"}, {"measurement": "expression of PARP-1 spliceosome", "setting": "SGC7901 cells [2]", "value": "higher than those of other groups"}]}
{"substance": "6-aminocaproic acid-RRRRRRRRR ([Ahx]RRRRRRRRR) [R9, cell-penetrating peptide (CPP)]", "values": [{"measurement": "fluorescence after entry into cells, differences between R9 group and other groups", "setting": "[3]", "value": "the most significant"}]}
{"substance": "6-aminocaproic acid-FPGSDRF ([Ahx]FPG[pS]DRF) [JWA-6]", "values": [{"measurement": "inhibition effect on B16F10 cells", "setting": "[4]", "value": "no inhibition effect"}, {"measurement": "tumor inhibition effect", "setting": "[5]", "value": "a certain degree of tumor inhibition effect"}, {"measurement": "inhibition effect on A375 cells", "setting": "[6]", "value": "no inhibition effect"}, {"measurement": "cleaved PARP-1", "setting": "A375 cells [7]", "value": "significantly increased"}, {"measurement": "cleaved caspase-3", "setting": "A375 cells [7]", "value": "significantly increased"}, {"measurement": "cytoactivity of A375 cells, combined use with ATO", "setting": "A375 cells [8]; polypeptide 50-500 μM in combination with ATO 0.5-5 μM, 24 and 48 hrs", "value": "obvious toxicity"}, {"measurement": "changes of PARP-1", "setting": "B16 cells", "value": "changes of PARP-1 were also seen"}]}
{"substance": "arsenic trioxide [ATO, reference compound]", "values": [{"measurement": "apoptosis rate", "setting": "SGC7901 cells [1]; pure ATO treatment group, 24 hrs", "value": 24.69, "unit": "%"}, {"measurement": "activity of A375 cells reduced by", "setting": "A375 cells [8]; 5 μM ATO alone, 24 hrs", "value": 40, "unit": "%"}, {"measurement": "cell growth inhibition rate", "setting": "A375 cells [8]; ATO alone, different doses (5, 10, 25, 50 μM), 48 hrs", "value": "approximately 100%"}]}
